Data: PMC8497620, “Structure and inhibition of Cryptococcus neoformans sterylglucosidase to develop antifungal agents” (Nature Communications, 2021)
“And” between values parts separate entries of the source, which are not always exact repeats. Equal entries are not always repeated. “Also recorded” adds a separate entry of the source.

Legend:
C. neoformans H99 = assay type: in vivo, Cryptococcus neoformans; settings: Hit 1 intranasally, fluconazole intraperitoneally
Description: For animal studies, 4-week-old CBA/J (Envigo) female mice were used. Mouse experiments were performed in full compliance with a protocol approved by Stony Brook University (IACUC number 341588) and in compliance with the United States Animal Welfare Act (Public Law 98–198). The experiments were carried out in facilities accredited by the Association for Assessment and Accreditation of Laboratory Animal Care. Mice were divided into sets of 12 mice for each treatment or control group (4 animals per cage) kept in an animal room (temperature, 22–24 °C; relative humidity, 35–45%) with artificial 12–12 h dark/light cycle. For the experiment with intraperitoneal (i.p.) treatment, mice were infected intranasally with 10 µL of a suspension containing 1 × 10^6 C. neoformans H99 cells and subsequently treated through i.p. injection with 10 mg/kg/day of hit 1 in a final volume of 100 µL of vehicle containing 10% PEG 200 in PBS. The untreated animals received 100 µL of vehicle. For the experiment with intranasal (i.n.) treatment, mice were infected with 1 × 10^5 C. neoformans H99 cells and received i.n. treatment with hit 1 in a final volume of 10 µL. Another group received treatment with 10 mg/kg/day of fluconazole i.p. and a third group received the combined treatment of hit1 by i.n. and fluconazole by i.p. Animals receiving only vehicle i.n. were used as a control group. In both experiments, three mice of each group were euthanized at day 3, 6, 9, and 14 post infection for CFU recovery from lungs and CFU recovery from brain on day 14.

C. neoformans Sgl1 [1] = target: T1, C. neoformans Sgl1 (Cryptococcus neoformans var. grubii, UniProt J9W473); experiment: Sgl1 inhibition with res-glp substrate (HTS, single-compound dose-response); assay type: biochemical; settings: res-glp as substrate (100 µM), primary screen; read-out: IC50 against Sgl1
Description: Resorufin-3β-D-glucopyranoside (res-glp, Sigma-Aldrich) enzyme kinetic assays were performed according to methods described by Urban et al.[16] with modifications. Reaction buffer contained 50 mM citric acid, 176 mM K2HPO4, pH 6, 0.01% Tween-20, and 10 mM sodium taurocholate. The reactions were carried out in black 96-well plates using 20 ng of enzyme with 100 μM res-glp substrate. In all, 10 μL/well of res-glp substrate was added to each well and the reaction was initiated by adding 20 μL enzyme (20 ng). After incubation at 37 °C for 30–40 min, the fluorescence was read at an excitation of 570 (±10) nm and an emission of 610 (±10) nm on a VersaMax™ Microplate Reader from Molecular Devices. A standard curve was prepared with serial dilutions of the free fluorophore, resorufin, in the same volume of assay buffer.
A ChemBridge DIVERSet-CL library (San Diego, CA) containing 50,000 compounds was screened to identify small molecules that inhibit C. neoformans Sgl1. The library was prepared in a 96-well plate format containing a cocktail of 10 compounds per well at 1 mM each in 100% DMSO. The cocktail plates were first diluted to 100 μM each (1:10 dilution in Dulbecco’s phosphate-buffered saline, DPBS) resulting in 10% DMSO. In order to screen the compound cocktails at […] in 1% DMSO in a final reaction volume of 30 μL an aliquot of 3 μL was added to 17 μL of buffer containing 20 ng of enzyme and the reaction was started adding 10 μL of 100 μM res-glp. A negative control without enzyme and positive controls with and without DMSO were prepared. The plates were incubated at 37 °C for 40 min.
The Z′-factor was used for the assessment of the efficiency of the HTS assay for each individual plate. Values greater than 0.5 has been considered as an indicator of an excellent screening assay quality.

[2] = tested on: human lung epithelial cancer cell line A549; settings: A549 cells, 24 h, MTT
Description: The cells were maintained in Dulbecco’s modified eagle medium containing 10% fetal bovine serum and 1% penicillin–streptomycin. At passage 11, 10^5 cells were transferred into each well of 96-well plates and cultured for 18–24 h for the cells to adhere to the well surface. After, the medium was removed and a fresh medium containing the selected compounds at a concentration range of 1–512 μM were added to the wells. Controls with equivalent serial concentrations of DMSO were also evaluated and compared with a control without DMSO. The plate was incubated at 37 °C with 5% CO2. After 24 h, the supernatant was removed and 50 μL of 5 mg/mL 3-(4,5-dimethylthiazol-2-yl)-2,5-diphenyltetrazoliumbromide (MTT) solution in phosphate-buffered saline (PBS) was added to each well. The plates were incubated for an additional 4 h and the formazan crystals formed inside the cell was dissolved by adding 50 μL DMSO.

C. neoformans Sgl1 [3] = target: T1, C. neoformans Sgl1; experiment: Enzymatic evaluation of C. neoformans Sgl1 against the fungal glucosylceramide (LC-MS); assay type: biochemical; settings: 10 μg substrate, 10 or 50 μg Sgl1, pH 5.5, 37 °C, 4 h
Description: (§1) To verify the enzymatic activity of C. neoformans Sgl1 against the fungal long-chain glucosylceramide (GlcCer, OH-Δ8,9-methyl-glucosylceramide), kindly provided by Khojin (Japan). The reactions used 10 μg of substrate and 10 or 50 μg of C. neoformans Sgl1 or cerezyme (Genzyme Corporation, Cambridge, MA, USA) in 100 μL acetate buffer pH 5.5 incubated at 37 °C for 4 h[11]. The reaction was terminated by adding 300 μL of chloroform/methanol (1:1 ratio) and the lower phase was collected and dried. 9-Methyl-ceramide production was monitored by liquid chromatography-mass spectrometry (LC-MS).

[4] = Hydrolysis of fungal long-chain glucosylceramide by cerezyme (9-methyl-ceramide by LC-MS); assay type: biochemical; settings: 4 h; for 9-methyl ceramide: 10 μg fungal GlcCer, 37 °C
Description: as §1

T1 sequence (J9W473 entry or part of it): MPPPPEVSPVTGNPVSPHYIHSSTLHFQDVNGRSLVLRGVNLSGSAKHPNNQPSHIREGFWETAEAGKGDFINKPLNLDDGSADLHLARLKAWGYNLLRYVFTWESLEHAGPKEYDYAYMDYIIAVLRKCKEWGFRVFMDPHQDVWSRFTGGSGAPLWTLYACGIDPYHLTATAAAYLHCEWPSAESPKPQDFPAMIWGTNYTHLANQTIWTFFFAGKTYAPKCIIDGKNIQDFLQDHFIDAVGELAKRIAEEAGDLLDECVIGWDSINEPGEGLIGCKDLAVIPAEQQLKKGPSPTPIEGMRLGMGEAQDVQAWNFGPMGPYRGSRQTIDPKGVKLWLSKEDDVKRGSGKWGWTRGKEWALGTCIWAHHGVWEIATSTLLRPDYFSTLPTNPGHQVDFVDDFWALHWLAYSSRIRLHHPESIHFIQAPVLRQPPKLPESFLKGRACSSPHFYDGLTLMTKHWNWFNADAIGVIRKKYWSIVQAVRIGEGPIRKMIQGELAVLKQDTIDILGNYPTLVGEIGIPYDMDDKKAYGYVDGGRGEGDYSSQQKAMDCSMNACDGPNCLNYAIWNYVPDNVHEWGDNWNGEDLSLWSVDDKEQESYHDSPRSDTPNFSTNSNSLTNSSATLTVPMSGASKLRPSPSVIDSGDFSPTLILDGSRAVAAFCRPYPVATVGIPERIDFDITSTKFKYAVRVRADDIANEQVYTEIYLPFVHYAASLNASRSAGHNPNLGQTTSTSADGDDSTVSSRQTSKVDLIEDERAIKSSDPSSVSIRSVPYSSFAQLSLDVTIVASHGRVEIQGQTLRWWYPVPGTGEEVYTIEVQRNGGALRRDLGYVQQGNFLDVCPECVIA

OC(Cn1cncn1)(Cn1cncn1)c1ccc(F)cc1F [Fluconazole, fluconazole, reference compound]
lung CFU compared to vehicle (C. neoformans H99; 14 days of treatment): significant difference among CFU recovered from the lungs; also recorded: slightly reduced lung CFU | brain dissemination / CFU recovered from the brain (C. neoformans H99; 14 days): did not prevent C. neoformans brain dissemination | Lung (CFU/mL) (C. neoformans H99; day 6 post infection, 10 mg/kg/day each, 10 mg/kg/day): 60000 CFU/mL and 120000 CFU/mL and 92000 CFU/mL

Cc1[nH]c2ccc(CNc3nccc(N)n3)cc2c1C [Hit 6]
IC50 (C. neoformans Sgl1 [1]): 2000 nM | LD50 (lethal dose 50) [2]: 181.3 µM

CN1C[C@H](NS(=O)(=O)c2cc(Cl)ccc2Cl)C[C@H]1CO [Hit 13]
IC50 (C. neoformans Sgl1 [1]): 2000 nM | LD50 (lethal dose 50) [2]: 217.3 µM

CN1C[C@H](Nc2nc(C(C)(C)C)nc3c2cnn3C)C[C@H]1CO [Hit 14]
IC50 (C. neoformans Sgl1 [1]): 1000 nM | LD50 (lethal dose 50) [2]: 357 µM

CCCCCCCCCCCCCCCCC(O)C(=O)NC(COC1OC(CO)C(O)C(O)C1O)C(O)C=CCCC=C(C)CCCCCCCCC (stereo not shown) [fungal glucosylceramide, OH-Δ8,9-methyl-glucosylceramide]
hydrolysis by Sgl1 (C. neoformans Sgl1 [3]): unable to detect hydrolysis

B1: Cerezyme: recombinant human glucosylceramidase (Genzyme Corporation) (protein, chains of the INN, looked up)
chain: ARPCIPKSFGYSSVVCVCNATYCDSFDPPTFPALGTFSRYESTRSGRRMELSMGPIQANHTGTGLLLTLQPEQKFQKVKGFGGAMTDAAALNILALSPPAQNLLLKSYFSEEGIGYNIIRVPMASCDFSIRTYTYADTPDDFQLHNFSLPEEDTKLKIPLIHRALQLAQRPVSLLASPWTSPTWLKTNGAVNGKGSLKGQPGDIYHQTWARYFVKFLDAYAEHKLQFWAVTAENEPSAGLLSGYPFQCLGFTPEHQRDFIARDLGPTLANSTHHNVRLLMLDDQRLLLPHWAKVVLTDPEAAKYVHGIAVHWYLDFLAPAKATLGETHRLFPNTMLFASEACVGSKFWEQSVRLGSWDRGMQYSHSIITNLLYHVVGWTDWNLALNPEGGPNWVRNFVDSPIIVDITKDTFYKQPMFYHLGHFSKFIPEGSQRVGLVASQKNDLDAVALMHPDGSAVVVVLNRSSKDVPLTIKDPAVGFLETISPGYSIHTYLWHRQ
9-methyl ceramide ([4]; Cerezyme 10 μg): 221.543 pmol/mL and 250.417 pmol/mL and 226.634 pmol/mL and 267.483 pmol/mL | 9-methyl ceramide ([4]; Cerezyme 50 g (so in the source)): 243.428 pmol/mL and 279.737 pmol/mL and 384.828 pmol/mL and 393.256 pmol/mL | hydrolysis of fungal glucosylceramide ([4]; positive control, pH 5.5, 37 °C): readily hydrolyzed fungal glucosylceramide
